Marks after values point to notes of the source that are not given here.
Key:
[1] = system: influenza A; experiment: Mouse model of influenza A: lung viral titers; format: in vivo, mice; conditions: Study 2; for Log10 Reduction vs. Vehicle: study day 6; for Lung Viral Titer: titers on study day 6
[2] = system: influenza A/Wisconsin/67/2005 (H3N2) challenge strain virus; experiment: Human live attenuated influenza challenge: nasal viral shedding by TCID50 cell culture assay; format: in vivo, healthy volunteers (humans)
Procedure: (§1) Subjects underwent thrice daily nasal swabs, and kept thrice daily score cards for clinical symptoms from Days 1-7, and were discharged from the facility on Day 8, with safety follow-up at approximately Day 28. Nasal swabs were assayed for influenza virus in cell culture (primary analysis) and by qRT-PCR (secondary analysis).
Additional FA group analyses were performed (data not shown).

[3] = system: influenza A/Wisconsin/67/2005 (H3N2) challenge strain virus; experiment: Human influenza challenge: rates of seroconversion; format: in vivo, healthy volunteers (humans); conditions: for Serology Sero-conversion, n/N: ≥4-fold increase in anti-influenza antibody titer at Follow-up Visit vs baseline
[4] = system: influenza A/Wisconsin/67/2005 (H3N2) challenge strain virus; experiment: Human influenza challenge: clinical and influenza-like symptom scores; format: in vivo, healthy volunteers (humans)
Procedure: as §1
Subjects recorded clinical symptoms three times a day in diaries. An AUC of clinical and influenza-like symptom scores from Day 1 through Day 7 was calculated.

[5] = 3 mg/kg BID from 24 h post infection for 5 days
[6] = 10 mg/kg BID from 24 h post infection for 5 days
[7] = 30 mg/kg BID from 24 h post infection for 5 days
[8] = Pooled Compound (1) dose groups (N = 52)
[9] = Pooled Compound (1) dose groups

SMILES: O=C(O)[C@H]1[C@H]2CC[C@H](CC2)[C@@H]1Nc1nc(-c2c[nH]c3ncc(F)cc23)ncc1F [Compound (1)]
- Log10 Reduction vs. Vehicle [1, 5]: −1.04
- Lung Viral Titer [1, 5]: 5.24*** Log10 TCID50
- Log10 Reduction vs. Vehicle [1, 6]: −1.08
- Lung Viral Titer [1, 6]: 5.20*** Log10 TCID50
- Log10 Reduction vs. Vehicle [1, 7]: −1.75
- Lung Viral Titer [1, 7]: 4.53*** Log10 TCID50
- Viral Shedding by Tissue Culture AUC, median ([2]; 100 mg QD (N = 12)): 1.25 log10 TCID50 mL*Day
- Viral Shedding by Tissue Culture Duration, median ([2]; 100 mg QD (N = 12)): 0.96 days
- Viral Shedding by Tissue Culture Peak, mean ([2]; 100 mg QD (N = 12)): 2.09 log10 TCID50/mL
- Viral Shedding by Tissue Culture AUC, median ([2]; 400 mg QD (N = 12)): 0.70 log10 TCID50 mL*Day
- Viral Shedding by Tissue Culture Duration, median ([2]; 400 mg QD (N = 12)): 1.60 days
- Viral Shedding by Tissue Culture Peak, mean ([2]; 400 mg QD (N = 12)): 1.73 log10 TCID50/mL
- Viral Shedding by Tissue Culture AUC, median ([2]; 900/600 mg (N = 14)): 3.20 log10 TCID50 mL*Day
- Viral Shedding by Tissue Culture Duration, median ([2]; 900/600 mg (N = 14)): 2.71 days
- Viral Shedding by Tissue Culture Peak, mean ([2]; 900/600 mg (N = 14)): 2.68 log10 TCID50/mL
- Viral Shedding by Tissue Culture AUC, median ([2]; 1200/600 mg (N = 14)): 0.35 log10 TCID50 mL*Day
- Viral Shedding by Tissue Culture Duration, median ([2]; 1200/600 mg (N = 14)): 0.00 days
- Viral Shedding by Tissue Culture Peak, mean ([2]; 1200/600 mg (N = 14)): 1.00 log10 TCID50/mL
- Viral Shedding by Tissue Culture AUC, median [2, 8]: 0.65 log10 TCID50 mL*Day
- Viral Shedding by Tissue Culture Duration, median [2, 8]: 0.71 days
- Viral Shedding by Tissue Culture Peak, mean [2, 8]: 1.87 log10 TCID50/mL
- Serology Sero-conversion (%) ([3]; 100 mg QD): (69%)
- Serology Sero-conversion, n/N ([3]; 100 mg QD): 11/16
- Serology Sero-conversion (%) ([3]; 400 mg QD): (47%)
- Serology Sero-conversion, n/N ([3]; 400 mg QD): 9/19
- Serology Sero-conversion (%) ([3]; 900/600 mg): (68%)
- Serology Sero-conversion, n/N ([3]; 900/600 mg): 13/19
- Serology Sero-conversion (%) ([3]; 1200/600 mg): (67%)
- Serology Sero-conversion, n/N ([3]; 1200/600 mg): 12/18
- Serology Sero-conversion (%) [3, 9]: (63%)
- Serology Sero-conversion, n/N [3, 9]: 45/72
- Composite Clinical Symptom AUC, median ([4]; 100 mg QD (N = 12)): 1.85 Grade*Day
- Composite Clinical Symptom Duration, median ([4]; 100 mg QD (N = 12)): 3.21 days
- Composite Clinical Symptom Peak, mean ([4]; 100 mg QD (N = 12)): 3.17 Grade
- Influenza like Symptom AUC, median ([4]; 100 mg QD (N = 12)): 1.85 Grade*Day
- Influenza like Symptom Duration, median ([4]; 100 mg QD (N = 12)): 3.21 days
- Influenza like Symptom Peak, mean ([4]; 100 mg QD (N = 12)): 2.75 Grade
- Composite Clinical Symptom AUC, median ([4]; 400 mg QD (N = 12)): 4.70 Grade*Day
- Composite Clinical Symptom Duration, median ([4]; 400 mg QD (N = 12)): 3.34 days
- Composite Clinical Symptom Peak, mean ([4]; 400 mg QD (N = 12)): 2.83 Grade
- Influenza like Symptom AUC, median ([4]; 400 mg QD (N = 12)): 3.80 Grade*Day
- Influenza like Symptom Duration, median ([4]; 400 mg QD (N = 12)): 3.34 days
- Influenza like Symptom Peak, mean ([4]; 400 mg QD (N = 12)): 2.42 Grade
- Composite Clinical Symptom AUC, median ([4]; 900/600 mg (N = 14)): 1.75 Grade*Day
- Composite Clinical Symptom Duration, median ([4]; 900/600 mg (N = 14)): 2.69 days
- Composite Clinical Symptom Peak, mean ([4]; 900/600 mg (N = 14)): 3.71 Grade
- Influenza like Symptom AUC, median ([4]; 900/600 mg (N = 14)): 1.75 Grade*Day
- Influenza like Symptom Duration, median ([4]; 900/600 mg (N = 14)): 2.69 days
- Influenza like Symptom Peak, mean ([4]; 900/600 mg (N = 14)): 3.21 Grade
- Composite Clinical Symptom AUC, median ([4]; 1200/600 mg (N = 14)): 1.95 Grade*Day
- Composite Clinical Symptom Duration, median ([4]; 1200/600 mg (N = 14)): 1.88 days
- Composite Clinical Symptom Peak, mean ([4]; 1200/600 mg (N = 14)): 1.50 Grade
- Influenza like Symptom AUC, median ([4]; 1200/600 mg (N = 14)): 1.75 Grade*Day
- Influenza like Symptom Duration, median ([4]; 1200/600 mg (N = 14)): 1.88 days
- Influenza like Symptom Peak, mean ([4]; 1200/600 mg (N = 14)): 1.36 Grade
- Composite Clinical Symptom AUC, median [4, 8]: 2.15 Grade*Day
- Composite Clinical Symptom Duration, median [4, 8]: 2.34 days
- Composite Clinical Symptom Peak, mean [4, 8]: 2.79 Grade
- Influenza like Symptom AUC, median [4, 8]: 2.05 Grade*Day
- Influenza like Symptom Duration, median [4, 8]: 2.34 days
- Influenza like Symptom Peak, mean [4, 8]: 2.42 Grade

Reference: patent US11345700B2, “Methods of preparing inhibitors of influenza viruses replication” (priority 2013, dated 2022)
